This is an account of results in patent US8217024B2, “Conjugated estrogen compositions, applicators, kits, and methods of making and use thereof” (Teva Women's Health, Inc., priority 2005, dated 2012).

The nature of this data set: Spreadability study (125 g load on 2 g product between two petri plates). It is filed as physicochemical. The note with it: 15 minutes after 125 g load on 2 g of product. The procedure: Spreadability studies were also performed for the formulations described in Table 4. Spreadability studies were conducted by applying a 125 g weight load on 2 g of product placed between two petri plates. The weight was placed on the petri plate over the product and the mean diameter of spreading was monitored over 1, 5, and 15 minutes. Based upon the mean spread diameter, the spread area was calculated. See, e.g., De Paula et al., Drug Dev Ind Pharm 24(3): 235-241 (1998). The results for spreadability are indicated in Table 5 for spread area at 15 minutes after the 125 g load was applied.

In the case of `OCC(O)CO` [Glycerin], the “% Spread as compared to estimated human vaginal surface area (87.5 cm^2)” value was 80.2% and the “Spread Area (cm^2)” value amounted to 70.2 cm^2.

For the molecule `O` [Water], the “% Spread as compared to estimated human vaginal surface area (87.5 cm^2)” value is on record as 89.4% and the “Spread Area (cm^2)” value turned out to be 78.2 cm^2.
